# Values quoted from earlier work, collected in patent US6660286B1, “Emulsion vehicle for poorly soluble drugs” (Sonus Pharmaceuticals, Inc., priority 1997, dated 2003).
# Where two headings read alike, the source gives them in different places.
compound,measurement,setting,value
CC(=O)O[C@H]1C(=O)[C@@]2(C)[C@H]([C@H](OC(=O)c3ccccc3)[C@]3(O)C[C@H](OC(=O)[C@H](O)[C@@H](NC(=O)c4ccccc4)c4ccccc4)C(C)=C1C3(C)C)[C@]1(OC(C)=O)CO[C@@H]1C[C@@H]2O [paclitaxel],solubility of paclitaxel,30% PVP in water,≤ 300 µg/mL
same,solubility of paclitaxel,35% PEG 400 in water,30 µg/mL
same,solubility of paclitaxel,admixtures of PEG 400 and water containing 50-100% PEG 400,200 to 175000 µg/mL
